SMILES strings stand for the structures. Structures can show the parent of a compound that is named as a salt.

Assay [1] concerns the target D2 receptor. In words: Binding: displacement of [^3 H] YM-09151-2 (D2 site). Conditions: Ligand [^3 H] YM09151-2. An excerpt: (§1) This process for studying specific binding is described Naunyn-Schmiedeberg's Arch. Pharmacol. 329, 333-338, 1985 and Mol. Pharmacol. 21, 301-314, 1982.
Assay [2] concerns the target 5-HT2 receptor (Rattus norvegicus, UniProt P14842). Description: Binding: displacement of [^3 H] Ketanserine (5-HT2 site). Conditions: compared with the reference substances.
Excerpt: as §1

Sequence of 5-HT2 receptor (P14842 whole entry): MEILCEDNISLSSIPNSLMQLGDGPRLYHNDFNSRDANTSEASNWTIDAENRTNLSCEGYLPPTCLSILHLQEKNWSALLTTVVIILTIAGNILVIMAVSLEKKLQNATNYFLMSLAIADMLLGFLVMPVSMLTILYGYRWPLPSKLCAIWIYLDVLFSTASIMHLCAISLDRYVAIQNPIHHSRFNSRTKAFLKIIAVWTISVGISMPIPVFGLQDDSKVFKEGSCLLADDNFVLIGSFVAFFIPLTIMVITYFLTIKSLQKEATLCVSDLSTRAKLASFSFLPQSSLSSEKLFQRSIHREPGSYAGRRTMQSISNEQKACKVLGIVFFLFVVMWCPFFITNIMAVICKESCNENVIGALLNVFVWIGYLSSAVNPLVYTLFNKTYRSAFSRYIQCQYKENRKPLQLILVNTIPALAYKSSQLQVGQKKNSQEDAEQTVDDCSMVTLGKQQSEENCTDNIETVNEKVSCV

The compound `COc1c(C(=O)N[C@@H]2C[C@H]3CC[C@@H](C2)N3Cc2ccccc2)ccc2ccccc12` [Example 3, 1-Methoxy-N-[8-(phenylmethyl)-8-azabicyclo[3.2.1]oct-3-β-yl]-2-naphthalenecarboxamide] came in with a Ki in assay [1] of 0.143 nM.
The compound `COc1c(C(=O)N[C@@H]2C[C@H]3CC[C@@H](C2)N3Cc2ccccc2)cc(Br)c2ccccc12` [Example 4, 4-Bromo-1-methoxy-N-[8-(phenylmethyl)-8-azabicyclo[3.2.1]oct-3-β-yl]-2-naphthalenecarboxamide oxalate] yielded a Ki in assay [1] of 0.776 nM.
Regarding `COc1c(C(=O)N[C@@H]2C[C@H]3CC[C@@H](C2)N3Cc2ccccc2)cc(Cl)c2ccccc12` [Example 5, 4-Chloro-1-methoxy-N-[8-(phenylmethyl)-8-azabicyclo[3.2.1]oct-3-β-yl)-2-naphthalenecarboxamide hydrochloride], in assay [1], the inhibitory constant (Ki) amounted to 0.408 nM.
Turning to `CCOc1c(C(=O)N[C@@H]2C[C@H]3CC[C@@H](C2)N3Cc2ccccc2)cc(Br)c2ccccc12` [Example 13, 4-Bromo-1-ethoxy-N-[8-(phenylmethyl)-8-azabicyclo[3.2.1]oct-3-β-yl]-2-naphthalenecarboxamide hydrochloride], the Ki in assay [1] turned out to be 0.944 nM. Compared with the last compound, the Ki is about 2.3-fold higher.
Consider `COc1c(C(=O)NC2CCN(Cc3ccccc3)CC2)ccc2ccccc12` [Patent EP 539,281 compound], for which the affinity in assay [1], expressed as Ki, was 3.32 nM. Further, the “affinity for the 5-HT2 receptor (in words)” value in assay [2] is on record as “little or no 5-HT2 affinity”.
In turn, `CCN1CCCC1CNC(=O)c1cc(S(N)(=O)=O)ccc1OC` (stereo not drawn) [Sulpiride] gave a Ki in assay [1] of 4.63 nM.
As for `COc1cccc(C(=O)N[C@@H]2C[C@H]3CC[C@@H](C2)N3Cc2ccccc2)c1OC` [Tropapride], in assay [1], affinity was put at a Ki of 0.106 nM. Besides, the “affinity for the 5-HT2 receptor (in words)” value in assay [2] is listed as “little or no 5-HT2 affinity”.

What is called Ki is the dissociation constant of the complex between target and ligand, obtained from inhibition or displacement. Lower therefore signals tighter binding.

For the origin of these results see US5958945A, “Naphthamide derivatives of 3-beta-amino azabicyclo octane or nonane as neuroleptic agents” (Pierre Fabre Medicament, priority 1995, dated 1999).
